Measurements reported in US20250223307A1, “MDM2/MDMX DOUBLE-TARGET INHIBITOR COMPOUND, PRODRUG, PHARMACEUTICAL COMPOSITION, AND PREPARATION METHOD THEREFOR AND USE THEREOF” (GLOBAL HEALTH DRUG DISCOVERY INSTITUTE, priority 2022, published 2025).

How the values were obtained:
[1] = test system: Blood cancer cells RS4; 11; test: CellTiter Glo test: growth inhibition of cells; assay type: cell-based; settings: Homo sapiens, 11 cells, 72 h, cell viability
Procedure: Test of Candidate Compounds on Growth Inhibition of Cells Determined by CellTiter Glo
Blood cancer cells RS4; 11 were inoculated into the 96-well cell culture plate through Multidrop 3000 cells per well, with a volume of 100 μL. The final compound concentration ranged from 50 μM to 0.01 μM at 9 concentration gradients and the DMSO final concentration was 0.1%. The cells and compounds were co-incubated in a cell incubator at 37° C. for 72 h, a CellTiter-Glo Luminescent Cell Viability Assay reagent was added 100 μL/well, the cells and compound were uniformly mixed and incubated at room temperature for 10 min, and Envision reading was performed. A sample treated with 50 μM of a positive compound was taken as a positive control and a sample treated with 100 nL of DMSO was taken as a negative control.

MDM2 = MDM2 (Homo sapiens, UniProt Q00987); test: HTRF test: inhibition of MDM2-p53 protein binding
MDM2, sequence (Q00987 2-138): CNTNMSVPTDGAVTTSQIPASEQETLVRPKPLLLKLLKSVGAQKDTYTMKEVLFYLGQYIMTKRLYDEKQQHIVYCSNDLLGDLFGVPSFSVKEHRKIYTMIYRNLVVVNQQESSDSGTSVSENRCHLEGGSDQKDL

MDMX = target: T1, MDMX (Homo sapiens, UniProt O15151); test: HTRF test: inhibition of MDMX-p53 protein binding
T1 sequence (O15151 2-134): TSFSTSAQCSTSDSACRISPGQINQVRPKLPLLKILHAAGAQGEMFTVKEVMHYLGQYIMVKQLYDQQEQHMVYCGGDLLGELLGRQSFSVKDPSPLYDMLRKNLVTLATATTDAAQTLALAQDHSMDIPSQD

Row | SMILES | IC50 [1] [nM] | IC50 (MDM2) [nM] | IC50 (MDMX) [nM]
1 | Cc1c(Cl)ccc2c(/C=C3\NC(=O)N(C(COP(=O)(O)O)c4ccc(F)c(F)c4)C3=O)c[nH]c12 (stereo not shown) [Compound 43, (Z)-2-(4-((6-chloro-7-methyl-1H-indol-3-yl)methylene)-2,5-dioxoimidazolidin-1-yl)-2-(3,4-difluorophenyl)ethyl dihydrophosphate] | – | 10 to 100 | 10 to 100
2 | O=C(NC(CO)CO)C(c1ccc(F)c(F)c1)N1C(=O)N/C(=C\c2c[nH]c3cc(Cl)ccc23)C1=O (stereo not shown) [Compound 24, (Z)-2-(4-((6-chloro-1H-indol-3-yl)methylene)-2,5-dioxoimidazolidin-1-yl)-2-(3,4-difluorophenyl)-N-(1,3-dihydroxypropan-2-yl)acetamide] | 1000 to 10000 | 10 to 100 | 10 to 100
3 | Cc1c(Cl)ccc2c(/C=C3\NC(=O)N(C(CO)c4ccc(Cl)cc4)C3=O)c[nH]c12 (stereo not shown) [Compound 70, (Z)-5-((6-chloro-7-methyl-1H-indol-3-yl)methylene)-3-(1-(4-chlorophenyl)-2-hydroxyethyl)imidazolidine-2,4-dione] | ≤ 1000 | 10 to 100 | 10 to 100
4 | O=C1N/C(=C\c2c[nH]c3c(F)c(Cl)ccc23)C(=O)N1Cc1c(F)cc(Cl)cc1F [Compound 102, (Z)-3-(4-chloro-2,6-difluorobenzyl)-5-((6-chloro-7-fluoro-1H-indol-3-yl)methylene)imidazolidine-2,4-dione] | ≤ 1000 | 10 to 100 | 10 to 100
5 | N#Cc1ccc(C(C=O)N2C(=O)N/C(=C\c3c[nH]c4c(F)c(Cl)ccc34)C2=O)cc1F (stereo not shown) [Compound 33, (Z)-4-(1-(4-((6-chloro-7-fluoro-1H-indol-3-yl)methylene)-2,5-dioxoimidazolidin-1-yl)-2-oxyethyl)-2-fluorobenzonitrile] | 1000 to 10000 | 10 to 100 | 10 to 100
6 | N#Cc1c(F)cc(CN2C(=O)N/C(=C\c3c[nH]c4c(F)c(Cl)ccc34)C2=O)cc1F [Compound 35] | ≤ 1000 | 10 to 100 | 10 to 100
7 | CCN(CC)CCNC(=O)C(c1ccc(Cl)cc1)N1C(=O)N/C(=C\c2c[nH]c3cc(Cl)ccc23)C1=O (stereo not shown) [Compound 23, (Z)-2-(4-((6-chloro-1H-indol-3-yl)methylene)-2,5-dioxoimidazolidin-1-yl)-2-(4-chlorophenyl)-N-(2-(diethylamino)ethyl)acetamide] | – | 10 to 100 | 10 to 100
8 | Cc1c(Cl)ccc2c(/C=C3\NC(=O)N(C(COP(=O)(O)O)c4ccc(C#N)cc4)C3=O)c[nH]c12 (stereo not shown) [Compound 92, (Z)-2-(4-((6-chloro-7-methyl-1H-indol-3-yl)methylene)-2,5-dioxoimidazolidin-1-yl)-2-(4-cyanophenyl)ethyl dihydrophosphate] | – | 10 to 100 | 10 to 100
9 | O=C1N/C(=C\c2c[nH]c3cc(Cl)ccc23)C(=O)N1[C@@H](COP(=O)(O)O)c1ccc(F)c(F)c1 [Compound 95, (R,Z)-2-(4-((6-chloro-1H-indol-3-yl)methylene)-2,5-dioxoimidazolidin-1-yl)-2-(3,4-difluorophenyl)dihydroethyl phosphate] | – | 10 to 100 | 10 to 100
10 | COc1c(Cl)ccc2c(/C=C3\NC(=O)N(C(C)c4ccc(F)c(F)c4)C3=O)c[nH]c12 (stereo not shown) [Compound 25, (Z)-5-((6-chloro-7-methoxyl-1H-indol-3-yl)methylene)-3-(1-(3,4-difluorophenyl)ethyl)imidazolidine-2,4-dione] | – | 10 to 100 | 10 to 100
11 | O=C1N/C(=C\c2c[nH]c3c(F)c(Cl)ccc23)C(=O)N1C(CCCO)c1ccc(Cl)cc1 (stereo not shown) [Compound 109, (Z)-5-((6-chloro-7-fluoro-1H-indol-3-yl)methylene)-3-(1-(4-chlorophenyl)-4-hydroxybutyl)imidazolidine-2,4-dione] | ≤ 1000 | – | –
12 | Cc1c(Cl)ccc2c(/C=C3\NC(=O)N(C(C(=O)NC(COP(=O)(O)O)COP(=O)(O)O)c4ccc(F)c(F)c4)C3=O)c[nH]c12 (stereo not shown) [Compound 74, (Z)-2-(2-(4-((6-chloro-7-methyl-1H-indol-3-yl)methylene)-2,5-dioxoimidazolidin-1-yl)-2-(3,4-difluorophenyl)acetamido)propane-1,3-diylbis(dihydrophosphate)] | – | > 100 | 10 to 100
13 | O=C1N/C(=C\c2c[nH]c3c(OCF)c(Cl)ccc23)C(=O)N1Cc1ccc(F)c(F)c1 [Compound 6, (Z)-5-((6-chloro-7-(fluoromethoxyl)-1H-indol-3-yl)methylene)-3-(3,4-difluorobenzyl)imidazolidine-2,4-dione] | – | 10 to 100 | 10 to 100
14 | Cc1c(Cl)ccc2c(/C=C3\NC(=O)N(C(CO)c4ccc(F)c(F)c4)C3=O)c[nH]c12 (stereo not shown) [Compound 39, (Z)-5-((6-chloro-7-methyl-1H-indol-3-yl)methylene)-3-(1-(3,4-difluorophenyl)-2-hydroxyethyl)imidazolidine-2,4-dione] | 1000 to 10000 | – | –
15 | O=C1N/C(=C\c2c[nH]c3c(F)c(Cl)ccc23)C(=O)N1C(CCO)c1ccc(Cl)cc1 (stereo not shown) [Compound 108, (Z)-5-((6-chloro-7-fluoro-1H-indol-3-yl)methylene)-3-(1-(4-chlorophenyl)-3-hydroxypropyl)imidazolidine-2,4-dione] | ≤ 1000 | – | –

Results, then the molecule that gave them:

Row | IC50 [1] [nM] | IC50 (MDM2) [nM] | IC50 (MDMX) [nM] | SMILES
16 | ≤ 1000 | 10 to 100 | 10 to 100 | O=C1N/C(=C\c2c[nH]c3c(F)c(Cl)ccc23)C(=O)N1C(CO)c1ccc(F)c(F)c1 (stereo not shown) [Compound 86, (Z)-5-((6-chloro-7-fluoro-1H-indol-3-yl)methylene)-3-(1-(3,4-difluorophenyl)-2-hydroxyethyl)imidazolidine-2,4-dione]
17 | ≤ 1000 | 10 to 100 | 10 to 100 | O=C1N/C(=C\c2c[nH]c3c(F)c(Cl)ccc23)C(=O)N1Cc1ccc(Cl)c(F)c1F [Compound 104, (Z)-3-(4-chloro-2,3-difluorobenzyl)-5-((6-chloro-7-fluoro-1H-indol-3-yl)methylene)imidazolidine-2,4-dione]
18 | – | 10 to 100 | 10 to 100 | O=C1N/C(=C\c2c[nH]c3c(Cl)c(Cl)ccc23)C(=O)N1Cc1ccc(F)c(F)c1 [Compound 7, (Z)-5-((6,7-dichloro-1H-indol-3-yl)methylene)-3-(3,4-difluorobenzyl)imidazolidine-2,4-dione]
19 | > 10000 | 10 to 100 | 10 to 100 | O=C1N/C(=C\c2c[nH]c3c(OCF)c(Cl)ccc23)C(=O)N1Cc1ccc(Cl)cc1 [Compound 12, (Z)-5-((6-chloro-7-(fluoromethoxyl)-1H-indol-3-yl)methylene)-3-(4-chlorobenzyl)imidazolidine-2,4-dione]
20 | 1000 to 10000 | 10 to 100 | 10 to 100 | O=C1N/C(=C\c2c[nH]c3c(F)c(Cl)ccc23)C(=O)N1Cc1ccc(F)c(F)c1 [Compound 10, (Z)-5-((6-chloro-7-fluoro-1H-indol-3-yl)methylene)-3-(3,4-difluorobenzyl)imidazolidine-2,4-dione]
21 | 1000 to 10000 | < 10 | 10 to 100 | N#Cc1ccc(C(C(=O)NCCO)N2C(=O)N/C(=C\c3c[nH]c4cc(Cl)ccc34)C2=O)cc1 (stereo not shown) [Compound 61, (Z)-2-(4-((6-chloro-1H-indol-3-yl)methylene)-2,5-dioxoimidazolidin-1-yl)-2-(4-cyanophenyl)-N-(2-hydroxyethyl)acetamide]
22 | ≤ 1000 | < 10 | < 10 | Cc1c(Cl)ccc2c(/C=C3\NC(=O)N(C(CO)c4ccc(C#N)cc4)C3=O)c[nH]c12 (stereo not shown) [Compound 88, (Z)-4-(1-(4-((6-chloro-7-methyl-1H-indol-3-yl)methylene)-2,5-dioxoimidazolidin-1-yl)-2-hydroxyethyl)benzonitrile]
23 | ≤ 1000 | < 10 | < 10 | Cc1c(Cl)ccc2c(/C=C3\NC(=O)N(C(C(=O)NCC45CCC(O)(CC4)CC5)c4ccc(F)c(F)c4)C3=O)c[nH]c12 (stereo not shown) [Compound 64, (Z)-2-(4-((6-chloro-7-methyl-1H-indol-3-yl)methylene)-2,5-dioxoimidazolidin-1-yl)-2-(3,4-difluorophenyl)-N-((4-hydroxylbicyclo[2.2.2]octan-1-yl)methyl)acetamide]
24 | – | < 10 | 10 to 100 | O=C(NC(CO)CO)C(c1ccc(Cl)cc1)N1C(=O)N/C(=C\c2c[nH]c3cc(Cl)ccc23)C1=O (stereo not shown) [Compound 22, (Z)-2-(4-((6-chloro-1H-indol-3-yl)methylene)-2,5-dioxoimidazolidin-1-yl)-2-(4-chlorophenyl)-N-(1,3-dihydroxypropan-2-yl)acetamide]
25 | – | < 10 | < 10 | O=C1N/C(=C\c2c[nH]c3cc(Cl)ccc23)C(=O)N1[C@H](COP(=O)(O)O)c1ccc(F)c(F)c1 [Compound 94, (S,Z)-2-(4-((6-chloro-1H-indol-3-yl)methylene)-2,5-dioxoimidazolidin-1-yl)-2-(3,4-difluorophenyl)dihydroethyl phosphate]
26 | – | < 10 | < 10 | Cc1c(Cl)ccc2c(/C=C3\NC(=O)N(C(C(=O)NCCOP(=O)(O)O)c4ccc(F)c(F)c4)C3=O)c[nH]c12 (stereo not shown) [Compound 44, (Z)-2-(2-(4-((6-chloro-7-methyl-1H-indol-3-yl)methylene)-2,5-dioxoimidazolidin-1-yl)-2-(3,4-difluorophenyl)acetamido)dihydroethyl phosphate]
